{"source": "patent EP0011828A1", "about": "“Pharmaceutical combinations including hydantoin derivatives, pharmaceutical formulations containing the combinations and methods of making the formulations” (THE WELLCOME FOUNDATION LIMITED, priority 1978, dated 1980)", "key": {"platelet aggregation": {"tested_on": "platelet aggregation", "assay": "Inhibition of platelet aggregation (general statement)", "format": "cell-based"}, "[1]": {"tested_on": "rabbit platelet-rich plasma (PRP)", "assay": "Arachidonic acid-induced aggregation in rabbit platelet-rich plasma, Born-type aggregometer", "format": "cell-based", "method": "(§1) Aggregation was induced in rabbit platelet-rich plasma (PRP) by addition of arachidonic acid, and monitored in a Born-type aggregometer. A dose of dipyridamole was selected which caused no inhibition of aggregation when added to the PRP 2 minutes prior to the addition of arachidonic acid. The active compound when added to the PRP 1 minute prior to the addition of arachidonic acid caused a dose-related inhibition of aggregation. The percentage inhibition caused by the active compound was compared in the presence and absence of the selected dose of dipyridamole."}, "human PRP [2]": {"tested_on": "human PRP", "assay": "ADP-induced aggregation of human PRP, potentiation by theophylline", "format": "cell-based", "method": "[The source words this procedure for another species and says it was used here with some conditions changed.] as §1\nThe experiment of Example 12 was repeated using theophylline, another inhibitor of phosphodiesterase, in place of the dipyridamole. […]"}, "[3]": {"tested_on": "histamine-induced broncho-constriction", "conditions": "cited from earlier work"}, "[4]": {"tested_on": "pentagastrin-induced gastric acid secretion", "conditions": "rat, in vivo; cited from earlier work"}, "[5]": {"tested_on": "aspirin- induced gastric lesions", "conditions": "rats; cited from earlier work"}, "human PRP [6]": {"tested_on": "human PRP", "assay": "Platelet aggregation in human PRP, potentiation by dipyridamole", "format": "cell-based", "conditions": "dipyridamole combined with 5-(6-carboxyhexyl)-1-(3-hydroxy-3-cyclohexylpropyl)hydantoin"}}, "note": "“Also recorded” adds a separate entry of the source."}
{"smiles": "O=C(O)CCCC=CCC1C(=O)NC(=O)N1CCC(O)C1CCCCC1", "note": "(stereo not shown) [5-(6-carboxyhex-2-enyl)-1-(3-hydroxy-3-cyclohexylpropyl)hydantoin]", "values": [{"measurement": "inhibitors of platelet aggregation (activity in words)", "setting": "platelet aggregation", "result": "especially active"}]}
{"smiles": "O=C(O)CCCCCCC1C(=O)NC(=O)N1CCC(O)C1CCCCC1", "note": "(stereo not shown) [5-(6-carboxyhexyl)-1-(3-hydroxy-3-cyclohexylpropyl)hydantoin]", "values": [{"measurement": "inhibition at 0.05 µg/mL", "setting": "[1]; Oryctolagus cuniculus, active compound 50 ng/ml alone, added 1 minute before arachidonic acid, read-out: Percentage Inhibition", "result": 37, "unit": "%"}, {"measurement": "inhibition at 0.075 µg/mL", "setting": "[1]; Oryctolagus cuniculus, active compound 75 ng/ml alone, read-out: Percentage Inhibition", "result": 66, "unit": "%"}, {"measurement": "inhibition at 0.1 µg/mL", "setting": "[1]; Oryctolagus cuniculus, active compound 100 ng/ml alone, read-out: Percentage Inhibition", "result": 100, "unit": "%"}, {"measurement": "Percentage Inhibition", "setting": "[1]; active compound 50 ng/ml with Dipyridamole 50 µg/ml", "result": 77}, {"measurement": "inhibition of rabbit platelet aggregation (potency in words)", "setting": "[1]; rabbit platelets, active compound alone", "result": "not a particularly potent inhibiton of rabbit platelet aggregation"}, {"measurement": "inhibition at 0.0005 µg/mL", "setting": "human PRP [2]; Homo sapiens, active compound 0.5 ng/ml alone, read-out: Percentage Inhibition", "result": 19, "unit": "%"}, {"measurement": "inhibition at 0.001 µg/mL", "setting": "human PRP [2]; Homo sapiens, active compound 1 ng/ml alone, read-out: Percentage Inhibition", "result": 55, "unit": "%"}, {"measurement": "Percentage Inhibition", "setting": "human PRP [2]; active compound 0.5 ng/ml with Theophylline 20 µg/ml", "result": 51}, {"measurement": "Percentage Inhibition", "setting": "human PRP [2]; active compound 1 ng/ml with Theophylline 20 µg/ml", "result": 70}, {"measurement": "inhibitors of platelet aggregation (activity in words)", "setting": "platelet aggregation", "result": "especially active"}]}
{"smiles": "CCCCC(C)(C)C(O)CCN1C(=O)NC(=O)C1CCCCCCC(=O)O", "note": "(stereo not shown) [5-(6-carboxyhexyl)-1-(3-hydroxy-4,4-dimethyloctyl) hydantoin]", "values": [{"measurement": "antagonism of histamine-induced broncho-constriction", "setting": "[3]", "result": "antagonises histamine-induced broncho-constriction"}]}
{"smiles": "CCCCCC(=O)CCN1C(=O)NC(=O)C1CCCCCCC(=O)O", "note": "(stereo not shown) [5-(6-carboxyhexyl)-1-(3-oxo-octyl)hydantoin]", "values": [{"measurement": "inhibition of pentagastrin-induced gastric acid secretion", "setting": "[4]", "result": "inhibits pentagastrin-induced gastric acid secretion"}, {"measurement": "formation of aspirin-induced gastric lesions", "setting": "[5]", "result": "reduces the formation of aspirin- induced gastric lesions in rats"}]}
{"smiles": "O=C(O)CCCCCCC1C(=O)NC(=O)N1CCCCOc1ccccc1", "note": "(stereo not shown) [5-(6-carboxyhexyl)-1-(4-phenoxybutyl) hydantoin]", "values": [{"measurement": "inhibition of pentagastrin-induced gastric acid secretion", "setting": "[4]", "result": "inhibits pentagastrin-induced gastric acid secretion"}, {"measurement": "formation of aspirin-induced gastric lesions", "setting": "[5]", "result": "reduces the formation of aspirin- induced gastric lesions in rats"}]}
{"smiles": "CCCCCC(=O)CCN1C(=O)N(C)C(=O)C1CCCCCCC(=O)O", "note": "(stereo not shown) [5-(6-carboxyhexyl)-3-methyl-1-(3-oxo-octyl)hydantoin]", "values": [{"measurement": "inhibition of pentagastrin-induced gastric acid secretion", "setting": "[4]", "result": "inhibits pentagastrin-induced gastric acid secretion"}, {"measurement": "formation of aspirin-induced gastric lesions", "setting": "[5]", "result": "reduces the formation of aspirin- induced gastric lesions in rats"}]}
{"smiles": "CCCCCC(O)CCN1C(=O)NC(=O)C1CCCCCCC(=O)O", "note": "(stereo not shown) [5-(6-carlJoxy-hexyl)-1-(3-hydroxyoctyl)-hydantoin]", "values": [{"measurement": "inhibition of pentagastrin-induced gastric acid secretion", "setting": "[4]", "result": "inhibits pentagastrin-induced gastric acid secretion"}, {"measurement": "formation of aspirin-induced gastric lesions", "setting": "[5]", "result": "reduces the formation of aspirin- induced gastric lesions in rats"}]}
{"smiles": "OCCN(CCO)c1nc(N2CCCCC2)c2nc(N(CCO)CCO)nc(N3CCCCC3)c2n1", "note": "[Dipyridamole, 2,2', 2\",2'\"-(4,8-dipiperidinopy-rimido [5,4-d]pyrimidine-2,6-diyldinitrilo)tetraethanol, reference compound]", "values": [{"measurement": "inhibition at 50 µg/mL", "setting": "[1]; Oryctolagus cuniculus, Dipyridamole 50 µg/ml alone, added 2 minutes before arachidonic acid, read-out: Percentage Inhibition", "result": 0, "unit": "%"}, {"measurement": "potentiation of the inhibitory activity of the active compound on platelet aggregation", "setting": "[1]; dipyridamole combined with 5-(6-carboxyhexyl)-1-(3-hydroxy-3-cyclohexylpropyl)hydantoin, rabbit PRP", "result": "inhibitory effect of a dose of the active compound in the presence of dipyridamole is approximately equivalent to that caused by twice that dose of the active compound alone; also recorded: produced a potentiation of the anti-aggrcgatory effect of the active compound"}, {"measurement": "potentiation of the anti-aggregatory effect of the active compound", "setting": "human PRP [6]", "result": "a similar potentiation was observed; also recorded: produced a potentiation of the anti-aggrcgatory effect of the active compound"}]}
{"smiles": "Cn1c(=O)c2[nH]cnc2n(C)c1=O", "note": "[Theophylline, 3,7-dihydro-1,3-dimethyl-1H-purine-2,6-dione, reference compound]", "values": [{"measurement": "inhibition at 20 µg/mL", "setting": "human PRP [2]; Homo sapiens, Theophylline 20 µg/ml alone, read-out: Percentage Inhibition", "result": 7, "unit": "%"}, {"measurement": "potentiation of the inhibitory effect of the active compound on ADP - induced aggregation", "setting": "human PRP [2]; theophylline combined with 5-(6-carboxyhexyl)-1-(3-hydroxy-3-cyclohexylpropyl)hydantoin, human PRP", "result": "found to potentiate the inhibitory effect"}]}
